Results published in patent publication US20230295260A1, “GLP RECEPTOR AGONISTS” (HEPTARES THERAPEUTICS LIMITED, priority 2020, published 2023).
pEC50: −log10 of the molar value. Starred links: 1 amine or outer side, 2 acyl side, 3 side chain; linkers in the order of their positions; H or OH if unused. Non-standard residues stand in square brackets, D forms with d. Residues, ends and D or L forms follow the SMILES beside them. Groups on a side chain read outwards from the residue. ξ: configuration not given here. *: point of attachment. Malonyl(2,2-Me2,histaminyl) = CC(C)(C(=O)NCCc1cnc[nH]1)C(=O)*; Ala(1H-tetrazol-5-yl) = N[C@@H](Cc1nnn[nH]1)C(=O)O; C18 diacid = O=C(O)CCCCCCCCCCCCCCCCC(=O)*; γGlu = O=C(O)[C@H](CCC(=O)[*:2])N[*:1]; ξαMePhe(2-F) = CC(N)(Cc1ccccc1F)C(=O)O; αMeL = CC(C)C[C@](C)(N)C(=O)O; Nle = CCCC[C@H](N)C(=O)O; AEEA = NCCOCCOCC(=O)O; Aib = CC(C)(N)C(=O)O; Alloc = C=CCOC(=O)*

Assays:
[1] = biological target: T1, human GLP1 receptor (Homo sapiens, UniProt P43220); assay: cAMP accumulation assay (HTRF), functional agonism of human GLP1 receptor in HEK cells; format: cell-based; settings: for Emax: HEK293, read-out: Human GLP-1R agonist cAMP Emax; for Emax / EC50: HEK cells, human GLP1 receptor BacMam, 45 min 37° C.; for EC50: read-out: Human GLP-1R agonist cAMP pEC50 (converted)
T1 construct: expressed in transfected cells; host or cells: HEK cells, BacMam virus transduction
T1 sequence (P43220 24-463): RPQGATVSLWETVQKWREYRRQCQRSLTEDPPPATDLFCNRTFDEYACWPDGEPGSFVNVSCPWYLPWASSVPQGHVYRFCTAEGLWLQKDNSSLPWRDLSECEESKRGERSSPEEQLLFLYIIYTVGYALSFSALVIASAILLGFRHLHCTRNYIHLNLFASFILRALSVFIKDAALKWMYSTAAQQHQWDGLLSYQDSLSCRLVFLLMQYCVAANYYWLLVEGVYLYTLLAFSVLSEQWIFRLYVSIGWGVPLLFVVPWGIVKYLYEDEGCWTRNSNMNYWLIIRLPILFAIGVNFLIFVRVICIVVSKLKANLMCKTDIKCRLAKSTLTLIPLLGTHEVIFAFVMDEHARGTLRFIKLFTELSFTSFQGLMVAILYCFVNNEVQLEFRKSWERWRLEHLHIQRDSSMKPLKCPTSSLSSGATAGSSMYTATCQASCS
Method: (§1) The functional activity of the peptides were assessed using a HTRF cAMP assay. pEC50 values are quoted.
(§2) cAMP production upon agonist stimulation of human GLP2 or GLP1 receptor was assessed utilizing HiRange cAMP kit (Cisbio). In brief, HEK cells were infected with either human GLP2 or GLP1 receptor BacMam virus for 24 hours and frozen for later use in the assay. […] Cells were prepared in the assay buffer (HBSS (Lonza) supplemented with 0.5 mM IBMX (Tocris)). After 45 min incubation at 37° C., the reaction was stopped by addition of the HTRF detection reagents in the lysis buffer provided in the kit.

[2] = biological target: T2, human GLP2 receptor (Homo sapiens, UniProt O95838); assay: cAMP accumulation assay (HTRF), functional agonism of human GLP2 receptor in HEK cells; settings: for Emax: HEK293, read-out: Human GLP-2R agonist cAMP Emax;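 on all read-outs here: HEK cells transduced via BacMam to express human GLP2 receptor, agonist-stimulated cAMP measured by HTRF after 45 min at 37 °C in HBSS with 0.5 mM IBMX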
T2 sequence (O95838 1-553): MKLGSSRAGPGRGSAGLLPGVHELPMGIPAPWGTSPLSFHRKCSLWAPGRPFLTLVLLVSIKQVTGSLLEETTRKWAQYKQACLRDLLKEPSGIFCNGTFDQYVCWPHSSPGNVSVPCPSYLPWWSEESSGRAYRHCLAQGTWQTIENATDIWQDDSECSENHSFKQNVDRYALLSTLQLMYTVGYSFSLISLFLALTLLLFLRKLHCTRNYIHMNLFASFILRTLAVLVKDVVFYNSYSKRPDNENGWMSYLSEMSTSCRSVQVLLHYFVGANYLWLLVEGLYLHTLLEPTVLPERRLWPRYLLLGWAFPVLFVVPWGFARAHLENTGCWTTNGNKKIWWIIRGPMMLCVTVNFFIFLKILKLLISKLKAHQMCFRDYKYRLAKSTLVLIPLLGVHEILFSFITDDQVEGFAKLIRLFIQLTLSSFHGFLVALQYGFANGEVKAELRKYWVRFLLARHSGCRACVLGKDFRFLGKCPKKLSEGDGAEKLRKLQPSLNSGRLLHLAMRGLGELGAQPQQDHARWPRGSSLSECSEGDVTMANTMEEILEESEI
Method: as §1, §2

Compound	Emax [1] [%]	EC50 [1] [nM]	pEC50 [2]	Emax [2] [%]	Human GLP-1R agonist cAMP Emax [1]	Human GLP-2R agonist cAMP Emax ([2]; HEK cells, human GLP2 receptor BacMam, 45 min 37° C.)
C=CCOC(=O)NCCCC[C@H](NC(=O)[C@H](C)NC(=O)[C@H](C)NC(=O)[C@H](CCCCNC(=O)OCC=C)NC(=O)[C@H](CC(C)C)NC(=O)[C@H](CC(=O)O)NC(=O)[C@H](CC(C)C)NC(=O)C(C)(C)NC(=O)[C@@H](NC(=O)[C@@H](Cc1ccccc1)NC(=O)[C@H](CCCC)NC(=O)[C@H](CCC(=O)O)NC(=O)[C@H](CC(=O)O)NC(=O)[C@H](CO)NC(=O)[C@H](Cc1ccccc1)NC(=O)[C@H](CO)NC(=O)CNC(=O)[C@H](Cc1nn[nH]n1)NC(=O)C(C)(C)C(=O)NCCc1c[nH]cn1)[C@@H](C)O)C(=O)N[C@@H](CC(=O)O)C(=O)N[C@@H](Cc1ccccc1)C(=O)N[C@H](C(=O)N[C@@H](CC(N)=O)C(=O)N[C@@H](Cc1c[nH]c2ccccc12)C(=O)N[C@@H](CC(C)C)C(=O)N[C@H](C(=O)N[C@@H](CCC(N)=O)C(=O)N[C@H](C(=O)N[C@@H](CCCCN)C(=O)N[C@H](C(=O)N[C@H](C(=O)N[C@@H](Cc1ccccc1)C(N)=O)[C@@H](C)O)[C@@H](C)CC)[C@@H](C)O)[C@@H](C)CC)[C@@H](C)CC [Example 6] ({Malonyl(2,2-Me2,histaminyl)}-[Ala(1H-tetrazol-5-yl)]GSFSDE[Nle][dF]T[Aib]LDLK(Alloc)AAK(Alloc)DFINWLIQTKITF-NH2)	96.4	10	10.50	103	–	–
C=CCOC(=O)NCCCC[C@H](NC(=O)[C@H](C)NC(=O)[C@H](C)NC(=O)[C@H](CCCCNC(=O)OCC=C)NC(=O)[C@H](CC(C)C)NC(=O)[C@H](CC(=O)O)NC(=O)[C@H](CC(C)C)NC(=O)[C@@H](NC(=O)[C@@H](NC(=O)[C@@H](Cc1ccccc1)NC(=O)[C@H](CCCC)NC(=O)[C@H](CCC(=O)O)NC(=O)[C@H](CC(=O)O)NC(=O)[C@H](CO)NC(=O)[C@H](Cc1ccccc1)NC(=O)[C@H](CO)NC(=O)CNC(=O)[C@H](Cc1nn[nH]n1)NC(=O)C(C)(C)C(=O)NCCc1c[nH]cn1)[C@@H](C)O)[C@@H](C)CC)C(=O)N[C@@H](CC(=O)O)C(=O)N[C@@H](Cc1ccccc1)C(=O)N[C@H](C(=O)N[C@@H](CC(N)=O)C(=O)N[C@@H](Cc1c[nH]c2ccccc12)C(=O)N[C@@H](CC(C)C)C(=O)N[C@H](C(=O)N[C@@H](CCC(N)=O)C(=O)N[C@H](C(=O)N[C@@H](CCCCN)C(=O)N[C@H](C(=O)N[C@H](C(=O)N[C@@H](CC(=O)O)C(N)=O)[C@@H](C)O)[C@@H](C)CC)[C@@H](C)O)[C@@H](C)CC)[C@@H](C)CC [Example 14] ({Malonyl(2,2-Me2,histaminyl)}-[Ala(1H-tetrazol-5-yl)]GSFSDE[Nle][dF]TILDLK(Alloc)AAK(Alloc)DFINWLIQTKITD-NH2)	96.1	12.6	11.00	101	–	–
C=CCOC(=O)NCCCC[C@H](NC(=O)[C@H](CC(C)C)NC(=O)[C@H](CC(=O)O)NC(=O)[C@H](CC(C)C)NC(=O)[C@@H](NC(=O)[C@@H](NC(=O)[C@@H](Cc1ccccc1)NC(=O)[C@H](CCCC)NC(=O)[C@H](CCC(=O)O)NC(=O)[C@H](CC(=O)O)NC(=O)[C@H](CO)NC(=O)C(C)(Cc1ccccc1F)NC(=O)[C@H](CO)NC(=O)CNC(=O)[C@H](CC(=O)O)NC(=O)C(C)(C)C(=O)NCCc1c[nH]cn1)[C@@H](C)O)[C@@H](C)CC)C(=O)N[C@@H](C)C(=O)N[C@@H](C)C(=O)N[C@@H](CCCCN)C(=O)N[C@@H](CC(=O)O)C(=O)N[C@@H](Cc1ccccc1)C(=O)N[C@H](C(=O)N[C@@H](CC(N)=O)C(=O)N[C@@H](Cc1c[nH]c2ccccc12)C(=O)N[C@@H](CC(C)C)C(=O)N[C@H](C(=O)N[C@@H](CCC(N)=O)C(=O)N[C@H](C(=O)N[C@@H](CCCCN)C(=O)N[C@H](C(=O)N[C@H](C(=O)N[C@@H](CC(=O)O)C(N)=O)[C@@H](C)O)[C@@H](C)CC)[C@@H](C)O)[C@@H](C)CC)[C@@H](C)CC (stereo partly drawn) [Example 4] ({Malonyl(2,2-Me2,histaminyl)}-DGS[ξαMePhe(2-F)]SDE[Nle][dF]TILDLK(Alloc)AAKDFINWLIQTKITD-NH2; C-terminus assumed)	98.1	–	–	99.3	–	–
Exendin-4 [reference compound]	–	–	–	–	99.7	1.6

The remaining compounds from weak to strong by pEC50 [2], led by results:

Emax [1] [%]	EC50 [1] [nM]	pEC50 [2]	Emax [2] [%]	Compound	Human GLP-1R agonist cAMP Emax [1]	Human GLP-2R agonist cAMP Emax ([2]; HEK cells, human GLP2 receptor BacMam, 45 min 37° C.)
89.8	12.6	10.50	103	CCCC[C@H](NC(=O)[C@H](CCC(=O)O)NC(=O)[C@H](CC(=O)O)NC(=O)[C@H](CO)NC(=O)[C@H](Cc1ccccc1)NC(=O)[C@H](CO)NC(=O)CNC(=O)[C@H](Cc1nn[nH]n1)NC(=O)C(C)(C)C(=O)NCCc1c[nH]cn1)C(=O)N[C@H](Cc1ccccc1)C(=O)N[C@H](C(=O)N[C@H](C(=O)N[C@@H](CC(C)C)C(=O)N[C@@H](CC(=O)O)C(=O)N[C@@H](CC(C)C)C(=O)N[C@@H](CCCCNC(=O)CC[C@H](NC(=O)COCCOCCNC(=O)COCCOCCNC(=O)CCCCCCCCCCCCCCCCC(=O)O)C(=O)O)C(=O)N[C@@H](C)C(=O)N[C@@H](C)C(=O)N[C@@H](CCCCN)C(=O)N[C@@H](CC(=O)O)C(=O)N[C@@H](Cc1ccccc1)C(=O)N[C@H](C(=O)N[C@@H](CC(N)=O)C(=O)N[C@@H](Cc1c[nH]c2ccccc12)C(=O)N[C@@H](CC(C)C)C(=O)N[C@H](C(=O)N[C@@H](CCC(N)=O)C(=O)N[C@H](C(=O)N[C@@H](CCCCN)C(=O)N[C@H](C(=O)N[C@H](C(=O)N[C@@H](Cc1ccccc1)C(N)=O)[C@@H](C)O)[C@@H](C)CC)[C@@H](C)O)[C@@H](C)CC)[C@@H](C)CC)[C@@H](C)CC)[C@@H](C)O [Example 23] ({Malonyl(2,2-Me2,histaminyl)}-[Ala(1H-tetrazol-5-yl)]GSFSDE[Nle][dF]TILDLK([γGlu-AEEA-AEEA-C18 diacid])AAKDFINWLIQTKITF-NH2)	–	–
94.1	20	10.90	102	C=CCOC(=O)NCCCC[C@H](NC(=O)[C@H](CC(C)C)NC(=O)[C@H](CC(=O)O)NC(=O)[C@H](CC(C)C)NC(=O)[C@@H](NC(=O)[C@@H](NC(=O)[C@@H](Cc1ccccc1)NC(=O)[C@H](CCCC)NC(=O)[C@H](CCC(=O)O)NC(=O)[C@H](CC(=O)O)NC(=O)[C@H](CO)NC(=O)[C@H](Cc1ccccc1)NC(=O)[C@H](CO)NC(=O)CNC(=O)[C@H](Cc1nn[nH]n1)NC(=O)C(C)(C)C(=O)NCCc1c[nH]cn1)[C@@H](C)O)[C@@H](C)CC)C(=O)N[C@@H](C)C(=O)N[C@@H](C)C(=O)NC(C)(C)C(=O)N[C@@H](CC(=O)O)C(=O)N[C@@H](Cc1ccccc1)C(=O)N[C@H](C(=O)N[C@@H](CC(N)=O)C(=O)N[C@@H](Cc1c[nH]c2ccccc12)C(=O)N[C@@H](CC(C)C)C(=O)N[C@H](C(=O)N[C@@H](CCC(N)=O)C(=O)N[C@H](C(=O)N[C@@H](CCCCN)C(=O)N[C@H](C(=O)N[C@H](C(=O)N[C@@H](Cc1ccccc1)C(N)=O)[C@@H](C)O)[C@@H](C)CC)[C@@H](C)O)[C@@H](C)CC)[C@@H](C)CC [Example 9] ({Malonyl(2,2-Me2,histaminyl)}-[Ala(1H-tetrazol-5-yl)]GSFSDE[Nle][dF]TILDLK(Alloc)AA[Aib]DFINWLIQTKITF-NH2)	–	–
92.7	2.51	11.00	102	C=CCOC(=O)NCCCC[C@H](NC(=O)[C@](C)(CC(C)C)NC(=O)[C@H](CC(=O)O)NC(=O)[C@H](CC(C)C)NC(=O)[C@@H](NC(=O)[C@@H](NC(=O)[C@@H](Cc1ccccc1)NC(=O)[C@H](CCCC)NC(=O)[C@H](CCC(=O)O)NC(=O)[C@H](CC(=O)O)NC(=O)[C@H](CO)NC(=O)[C@H](Cc1ccccc1)NC(=O)[C@H](CO)NC(=O)CNC(=O)[C@H](Cc1nn[nH]n1)NC(=O)C(C)(C)C(=O)NCCc1c[nH]cn1)[C@@H](C)O)[C@@H](C)CC)C(=O)N[C@@H](C)C(=O)N[C@@H](C)C(=O)N[C@@H](CCCCN)C(=O)N[C@@H](CC(=O)O)C(=O)N[C@@H](Cc1ccccc1)C(=O)N[C@H](C(=O)N[C@@H](CC(N)=O)C(=O)N[C@@H](Cc1c[nH]c2ccccc12)C(=O)N[C@@H](CC(C)C)C(=O)N[C@H](C(=O)N[C@@H](CCC(N)=O)C(=O)N[C@H](C(=O)N[C@@H](CCCCN)C(=O)N[C@H](C(=O)N[C@H](C(=O)N[C@@H](CC(=O)O)C(N)=O)[C@@H](C)O)[C@@H](C)CC)[C@@H](C)O)[C@@H](C)CC)[C@@H](C)CC [Example 19] ({Malonyl(2,2-Me2,histaminyl)}-[Ala(1H-tetrazol-5-yl)]GSFSDE[Nle][dF]TILD[αMeL]K(Alloc)AAKDFINWLIQTKITD-NH2)	–	–
